# From patent US20100048950A1 (BOEHRINGER INGELHEIM INTERNATIONAL GMBH, priority 2007, published 2010)
# Target: T1, human glucocorticoid receptor (GR) complex (Homo sapiens, UniProt P04150)
# T1 construct: made in house; host or cells: insect expression system (baculovirus lysate)
# T1 sequence (P04150 1-777): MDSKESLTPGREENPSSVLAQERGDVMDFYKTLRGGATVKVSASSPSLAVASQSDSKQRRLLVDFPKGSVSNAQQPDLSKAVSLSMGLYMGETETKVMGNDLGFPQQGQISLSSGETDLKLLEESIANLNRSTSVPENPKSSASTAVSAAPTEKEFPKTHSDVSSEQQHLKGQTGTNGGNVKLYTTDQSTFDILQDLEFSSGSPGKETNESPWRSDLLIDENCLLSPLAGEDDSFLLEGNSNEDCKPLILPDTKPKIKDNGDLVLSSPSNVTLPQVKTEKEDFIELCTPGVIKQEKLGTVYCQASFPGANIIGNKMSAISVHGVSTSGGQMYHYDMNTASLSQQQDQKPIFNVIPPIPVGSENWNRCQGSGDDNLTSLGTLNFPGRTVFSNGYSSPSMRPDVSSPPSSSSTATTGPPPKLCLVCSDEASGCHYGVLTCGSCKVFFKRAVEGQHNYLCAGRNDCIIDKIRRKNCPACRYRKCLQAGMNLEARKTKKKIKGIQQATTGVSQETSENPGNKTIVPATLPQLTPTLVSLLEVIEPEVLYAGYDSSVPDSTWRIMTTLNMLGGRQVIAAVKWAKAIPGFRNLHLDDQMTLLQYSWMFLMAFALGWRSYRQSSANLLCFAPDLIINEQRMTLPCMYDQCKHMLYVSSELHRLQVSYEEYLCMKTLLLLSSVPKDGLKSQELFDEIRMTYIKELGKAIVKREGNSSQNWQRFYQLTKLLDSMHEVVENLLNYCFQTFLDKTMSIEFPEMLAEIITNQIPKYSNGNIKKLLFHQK
# Assay: Glucocorticoid receptor competitive binding assay (fluorescence polarization)
# Details: competition with TAMRA-labeled dexamethasone, read-out: potent activity (IC50) in the GR binding assay
# In short: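 Human GR complex in baculovirus insect-cell lysate (1:170) competed against 15 nM TAMRA-dexamethasone stock for 1 h at room temperature. Buffer: TES/KCl/molybdate/EDTA/CHAPS/glycerol/DTT, pH 7.4, 1% DMSO final. FP read at 550/580 nm; IC50 from 4-parameter logistic fit.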
row,IC50 [nM],Structure (SMILES)
1,≤ 100,"Cc1cc(C)c(S(=O)(=O)NC(COc2ccc(Cl)cc2Cl)C(F)(F)F)c(C)c1 (stereo not shown) [N-[1-(2,4-Dichlorophenoxymethyl)-2,2,2-trifluoroethyl]-2,4,6-trimethylbenzenesulfonamide]"
2,≤ 100,"COc1ccccc1SCC(NS(=O)(=O)c1c(C)cc(C)cc1C)C(F)(F)F (stereo not shown) [2,4,6-Trimethyl-N-[2,2,2-trifluoro-1-(2-methoxyphenylsulfanylmethyl)ethyl]benzenesulfonamide]"
3,≤ 100,"Cc1cc(C)c(S(=O)(=O)NC(COc2cccc(Cl)c2)C(F)(F)F)c(C)c1 (stereo not shown) [N-[1-(3-Chlorophenoxymethyl)-2,2,2-trifluoroethyl]-2,4,6-trimethylbenzenesulfonamide]"
4,≤ 100,"Cc1cc(C)c(S(=O)(=O)NC(CNc2cccc(C#N)c2)C(F)(F)F)c(C)c1 (stereo not shown) [N-{1-[(3-Cyanophenylamino)methyl]-2,2,2-trifluoroethyl}-2,4,6-trimethylbenzenesulfonamide]"
5,≤ 100,"CCOC(=O)c1ccc(OCC(NS(=O)(=O)c2c(C)cc(C)cc2C)C(F)(F)F)c(OC)c1 (stereo not shown) [3-Methoxy-4-[3,3,3-trifluoro-2-(2,4,6-trimethylbenzenesulfonylamino)propoxy]benzoic acid ethyl ester]"
6,≤ 100,"COC(=O)c1ccccc1NCC(NS(=O)(=O)c1c(C)cc(C)cc1C)C(F)(F)F (stereo not shown) [2-[3,3,3-Trifluoro-2-(2,4,6-trimethylbenzenesulfonylamino)propylamino]benzoic acid methyl ester]"
7,≤ 100,"Cc1cc(C)c(S(=O)(=O)NC(COc2cc(C)ccc2Cl)C(F)(F)F)c(C)c1 (stereo not shown) [N-[1-(2-Chloro-5-methylphenoxymethyl)-2,2,2-trifluoroethyl]-2,4,6-trimethylbenzenesulfonamide]"
8,≤ 100,"Cc1cc(C)c(S(=O)(=O)NC(CN(C)c2ccccc2OC(F)(F)F)C(F)(F)F)c(C)c1 (stereo not shown) [2,4,6-Trimethyl-N-(2,2,2-trifluoro-1-{[methyl-(2-trifluoromethoxyphenyl)amino]methyl}-ethyl)benzenesulfonamide]"
9,≤ 100,"Cc1cc(C)c(S(=O)(=O)NC(CNc2ccccc2Cl)C(F)(F)F)c(C)c1 (stereo not shown) [N-{1-[(2-Chlorophenylamino)methyl]-2,2,2-trifluoroethyl}-2,4,6-trimethylbenzenesulfonamide]"
10,≤ 100,"Cc1cc(C)c(S(=O)(=O)NC(CSc2cccc(Cl)c2)C(F)(F)F)c(C)c1 (stereo not shown) [N-[1-(3-Chlorophenylsulfanylmethyl)-2,2,2-trifluoroethyl]-2,4,6-trimethylbenzenesulfonamide]"
11,≤ 100,"COc1ccc(NCC(NS(=O)(=O)c2c(C)cc(C)cc2C)C(F)(F)F)c(OC)c1 (stereo not shown) [N-{1-[(2,4-Dimethoxyphenylamino)methyl]-2,2,2-trifluoroethyl}-2,4,6-trimethylbenzenesulfonamide]"
12,≤ 100,"COc1ccc(C(F)(F)F)cc1NCC(NS(=O)(=O)c1c(C)cc(C)cc1C)C(F)(F)F (stereo not shown) [2,4,6-Trimethyl-N-{2,2,2-trifluoro-1-[(2-methoxy-5-trifluoromethylphenylamino)methyl]ethyl}benzenesulfonamide]"
13,≤ 100,"Cc1cc(C)c(S(=O)(=O)NC(CNc2cccc(Cl)c2C#N)C(F)(F)F)c(C)c1 (stereo not shown) [N-{1-[(3-Chloro-2-cyanophenylamino)methyl]-2,2,2-trifluoroethyl}-2,4,6-trimethylbenzenesulfonamide]"
14,≤ 100,"Cc1cc(C)c(S(=O)(=O)NC(CNc2cccc(C(F)(F)F)c2)C(F)(F)F)c(C)c1 (stereo not shown) [2,4,6-Trimethyl-N-{2,2,2-trifluoro-1-[(3-trifluoromethylphenylamino)methyl]ethyl}benzenesulfonamide]"
15,≤ 100,"Cc1cc(C)c(S(=O)(=O)NC(COc2cccc3c2CCC3=O)C(F)(F)F)c(C)c1 (stereo not shown) [2,4,6-Trimethyl-N-[2,2,2-trifluoro-1-(1-oxoindan-4-yloxymethyl)ethyl]benzenesulfonamide]"
16,≤ 100,"Cc1cc(C)c(S(=O)(=O)NC(CSc2ccc(C(C)C)cc2)C(F)(F)F)c(C)c1 (stereo not shown) [2,4,6-Trimethyl-N-[2,2,2-trifluoro-1-(4-isopropylphenylsulfanylmethyl)ethyl]benzenesulfonamide]"
17,≤ 100,"Cc1cc(C)c(S(=O)(=O)NC(CSc2ccc(F)cc2Cl)C(F)(F)F)c(C)c1 (stereo not shown) [N-[1-(2-Chloro-4-fluorophenylsulfanylmethyl)-2,2,2-trifluoroethyl]-2,4,6-trimethylbenzenesulfonamide]"

row,IC50 [nM],Structure (SMILES)
1,≤ 100,"Cc1cc(C)c(S(=O)(=O)NC(COc2ccc(Cl)cc2F)C(F)(F)F)c(C)c1 (stereo not shown) [N-[1-(4-Chloro-2-fluorophenoxymethyl)-2,2,2-trifluoroethyl]-2,4,6-trimethylbenzenesulfonamide]"
2,≤ 100,"Cc1cc(C)c(S(=O)(=O)NC(CNc2ccc(Cl)cc2C#N)C(F)(F)F)c(C)c1 (stereo not shown) [N-{1-[(4-Chloro-2-cyanophenylamino)methyl]-2,2,2-trifluoroethyl}-2,4,6-trimethylbenzenesulfonamide]"
3,≤ 100,"Cc1ccc(NCC(NS(=O)(=O)c2c(C)cc(C)cc2C)C(F)(F)F)c(C)c1 (stereo not shown) [N-{1-[(2,4-Dimethylphenylamino)methyl]-2,2,2-trifluoroethyl}-2,4,6-trimethylbenzenesulfonamide]"
4,≤ 100,"Cc1cc(C)c(S(=O)(=O)NC(CSc2ccccc2Br)C(F)(F)F)c(C)c1 (stereo not shown) [N-[1-(2-Bromophenylsulfanylmethyl)-2,2,2-trifluoroethyl]-2,4,6-trimethylbenzenesulfonamide]"
5,≤ 100,"Cc1cc(C)c(S(=O)(=O)NC(COc2cccc3c2CCCC3)C(F)(F)F)c(C)c1 (stereo not shown) [2,4,6-Trimethyl-N-[2,2,2-trifluoro-1-(5,6,7,8-tetrahydronaphthalen-1-yloxymethyl)ethyl]benzenesulfonamide]"
6,≤ 100,"Cc1cc(C)c(S(=O)(=O)NC(CNc2c(F)cccc2F)C(F)(F)F)c(C)c1 (stereo not shown) [N-{1-[(2,6-Difluorophenylamino)methyl]-2,2,2-trifluoroethyl}-2,4,6-trimethylbenzenesulfonamide]"
7,≤ 100,"Cc1cc(C)c(S(=O)(=O)NC(CSc2c(Cl)cccc2Cl)C(F)(F)F)c(C)c1 (stereo not shown) [N-[1-(2,6-Dichlorophenylsulfanylmethyl)-2,2,2-trifluoroethyl]-2,4,6-trimethylbenzenesulfonamide]"
8,≤ 100,"Cc1cc(C)c(S(=O)(=O)NC(COc2ccc(F)cc2C)C(F)(F)F)c(C)c1 (stereo not shown) [2,4,6-Trimethyl-N-[2,2,2-trifluoro-1-(4-fluoro-2-methylphenoxymethyl)ethyl]benzenesulfonamide]"
9,≤ 100,"Cc1cc(C)c(S(=O)(=O)NC(CSc2ccccc2C(C)C)C(F)(F)F)c(C)c1 (stereo not shown) [2,4,6-Trimethyl-N-[2,2,2-trifluoro-1-(2-isopropylphenylsulfanylmethyl)ethyl]benzenesulfonamide]"
10,≤ 100,"Cc1cc(C)c(S(=O)(=O)NC(COc2cc(F)c(F)cc2F)C(F)(F)F)c(C)c1 (stereo not shown) [2,4,6-Trimethyl-N-[2,2,2-trifluoro-1-(2,4,5-trifluorophenoxymethyl)ethyl]benzenesulfonamide]"
11,≤ 100,"Cc1cc(C)c(S(=O)(=O)NC(COc2ccc(Cl)c(C(F)(F)F)c2)C(F)(F)F)c(C)c1 (stereo not shown) [N-[1-(4-Chloro-3-trifluoromethylphenoxymethyl)-2,2,2-trifluoroethyl]-2,4,6-trimethylbenzenesulfonamide]"
12,≤ 100,"Cc1cc(C)c(S(=O)(=O)NC(CSc2cc(C)ccc2C)C(F)(F)F)c(C)c1 (stereo not shown) [N-[1-(2,5-Dimethylphenylsulfanylmethyl)-2,2,2-trifluoroethyl]-2,4,6-trimethylbenzenesulfonamide]"
13,≤ 100,"Cc1cc(C)c(S(=O)(=O)NC(COc2ccc(C)cc2Cl)C(F)(F)F)c(C)c1 (stereo not shown) [N-[1-(2-Chloro-4-methylphenoxymethyl)-2,2,2-trifluoroethyl]-2,4,6-trimethylbenzenesulfonamide]"
14,≤ 100,"Cc1cc(C)c(S(=O)(=O)NC(CNc2ccccc2C#N)C(F)(F)F)c(C)c1 (stereo not shown) [N-{1-[(2-Cyanophenylamino)methyl]-2,2,2-trifluoroethyl}-2,4,6-trimethylbenzenesulfonamide]"
15,≤ 100,"Cc1cc(C)cc(NCC(NS(=O)(=O)c2c(C)cc(C)cc2C)C(C)C)c1 (stereo not shown) [N-{1-[(3,5-Dimethylphenylamino)methyl]-2-methylpropyl}-2,4,6-trimethylbenzenesulfonamide]"
16,≤ 100,"COc1ccc(OC)c(SCC(NS(=O)(=O)c2c(C)cc(C)cc2C)C(F)(F)F)c1 (stereo not shown) [N-[1-(2,5-Dimethoxyphenylsulfanylmethyl)-2,2,2-trifluoroethyl]-2,4,6-trimethylbenzenesulfonamide]"
17,≤ 100,"Cc1cc(C)c(S(=O)(=O)NC(CNc2cc(C(F)(F)F)ccc2Cl)C(F)(F)F)c(C)c1 (stereo not shown) [N-{1-[(2-Chloro-5-trifluoromethylphenylamino)methyl]-2,2,2-trifluoroethyl}-2,4,6-trimethylbenzenesulfonamide]"
